pIC50: −log10 of the molar value. ≈ marks a conversion by molar mass, not a printed value.
What was measured:
[1] = Aqueous solubility determination (Example 4); format: physicochemical
Method: Each salt is suspended in water and shaken for 24 h at 22° C. and 400 rpm. The resulting suspensions are filtered (0.2-μm filter). The obtained solids are analyzed by FT Raman. The pH of the filtrate is measured, and the concentration of the free base is determined by HPLC.

[2] = tested on: MMP13 expression in SW1353 cells; experiment: IL-1/OSM driven MMP13 expression in SW1353 cells (MMP13 ELISA); format: cell-based; conditions: Homo sapiens, IL-1β and OSM, 48 hr
Method: A 384 well format ELISA for measurement of MMP13 was developed. Various primary antibodies are tested, as well as various ELISA protocols. The following protocol is developed and validated to measure MMP13 levels in supernatant of cell cultures in 384 well plates.
Black maxisorb 384 well plates (Nunc 460518) are coated with 35 μL of a buffered solution containing 1.5 μg/mL anti-MMP13 antibody MAB511 (R&D systems). The antibody is diluted in carbonate-bicarbonate coating buffer (1.59 g Na2CO3 (Sigma S-7795) and 2.93 g NaHCO3 (Sigma S-5761) in 1 L MilliQ water, adjusted to pH 9.6). […] Substrate solution is prepared as follows: OmniMMP Fluorescent substrate (Biomol P-126) stock solution (2 mM in DMSO, stored at −20° C.) is diluted in 1× OmniMMP buffer (10× OmniMMP buffer: 500 mM Hepes (Sigma H4034), 100 mM CaCl2 (Sigma C5080), 0.5% Brij35 (Sigma 430 AG-6; adjusted to pH 7.0) to a final concentration of 0.01 mM. After an overnight incubation at 37° C., the active MMP13 in the sample has cleaved the substrate and released fluorescence. Readout is performed on the EnVision (Perkin Elmer) using 320 nm excitation/405 nm emission filters. […]

[3] = Tolerability of compounds in healthy mice (total body weight); format: in vivo, DBA/1J mice; conditions: 100 mg/kg/d, po, up to two weeks
Method: This protocol is designed to assess the tolerability of the compounds of the invention in healthy DBA/1J mice to determine the “therapeutic window” as defined by the dosing range between efficacious (mouse therapeutic Collagen-Induced Arthritis model) and toxic doses.
DBA/1J […] mice are used (CERJ (France)), the mice are 10-11 weeks old, and have a body weight of approx 20g.
Compounds are prepared for a dosing regimen of 100 mg/kg/d, po, free base, in a standard volume of injection of 0.1 mL/10 g of mice (equivalent to 10 mg/1 mL). For solution preparations, compounds are dissolved in 0.5% methyl-cellulose and 1% DMSO supplemented with 1 molar equivalent of methanesulfonic acid to ensure full dissolution, once a week.
Groups are randomized based on body weight and treated for up to two weeks. Each group contained 5 mice and received either test compound at 100 mg/kg, a comparison compound at 100 mg/kg/d (Compound A) or vehicle on a daily basis in a dosing volume of 200 μL per mouse.
Potential drug toxicity is monitored by observation every day and by recording body weights three times a week for weight loss. All statistical analyses are performed using Student's t test.
To assess the general tolerability of the treatments, the total body weight is followed throughout the course of the study.

CC(C)N1C[C@@H]2C[C@H]1CN2c1ccc(Nc2ncc(-c3coc(C(N)=O)c3)n3ncnc23)cc1 [Compound 1, 4-{8-[4-((1S,4S)-5-Isopropyl-2,5-diaza-bicyclo[2.2.1]hept-2-yl)-phenylamino]-[1,2,4]triazolo[1,5-a]pyrazin-5-yl}-furan-2-carboxamide]
Filtrate pH ([1]; filtrate of the aqueous suspension after 24 h): 6.9 | solubility at 24 h ([1]; thermodynamic from solid, water, shaken 24 h at 22° C., free base concentration by HPLC, read-out: Measured solubility): 70 µg/mL (≈ 153 µM) | pIC50 [2]: 6.30 to 7.30 | weight of the animals compared to the vehicle [3]: no statistically significant difference
